Test results: patent US9211310B2, “Use of a Chinese medicine composition in preparing medicaments for treating secondary prevention of myocardial infarction” (TASLY PHARMACEUTICAL GROUP CO., LTD, priority 2010, dated 2015)

System: patients after acute myocardial infarction
Assay: Angina pectoris score, total and single (frequency/attack times, duration, pain degree, dose of nitroglycerin), same clinical trial
Assay type: in vivo, human
Design: total angina pectoris score, Md / total angina pectoris score, Mean: scale not given here
Settings: for change of attack times score, patients (%): Follow-up baseline
Excerpt: In order to better understand the present invention, a multi-center, randomized, double-blind, double-dummy and positive drug controlled trial had been conducted. 3508 patients who were in accordance with the diagnostic standards of AMI for 28 days to 2 years and differentiated as Qi deficiency and blood stagnation syndrome by TCM were studied. 0.5 g Chinese medicine composition prepared by the method of EXAMPLE 1 (Coded as QSYQ) was administrated half an hour after meal, 3 times per day. Aspirine was used as a positive drug. The patients were treated for 1 year and observed for 6 months.
They included the overall survival time, angina pectoris score, TCM symptom score and life quality score, where angina pectoris score, TCM symptom score and life quality score were evaluated at randomization, in 1st, 3rd, 6th, 9th, 12th month after treatment and 18th month after follow-up.
Total angina pectoris score was described on every observation period and the change of observation in comparison with baseline. T-test or Wilcoxon rank sum test were used for inter-group comparison. Grade of total score was evaluated on every observation and Wilcoxon rank sum test was used for inter-group comparison. T-test and Pairing signed rank sum test were used for analyzing the change of total score on every observation between groups in comparison with the baseline.
Single angina pectoris score was depicted on every observation time-point and the change of observation in comparison with baseline. Wilcoxon rank sum test was used for inter-group comparison. Pairing signed rank sum test was used for analyzing the change of total score on every observation between groups in comparison with the baseline.
Total angina pectoris score was described on every observation period and the change of observation in comparison with the baseline. T-test or Wilcoxon rank sum test were used for inter-group comparison. Grade of total score was evaluated on every observation and Wilcoxon rank sum test was used for inter-group comparison. T-test and Pairing signed rank sum test were used for analyzing the change of total score on every observation between groups in comparison with the baseline.
Single angina pectoris score was described on every observation time-point and the change of observation in comparison with baseline. Wilcoxon rank sum test was used for inter-group comparison. Pairing signed rank sum test was used for analyzing the change of total score on every observation between groups in comparison with the baseline.

[1] = FAS, 12 months after treatment-baseline
[2] = PP, 1 month after treatment-baseline
[3] = PP, 3 months after treatment-baseline

CC(=O)Oc1ccccc1C(=O)O [Control group, aspirine]
change of total angina pectoris score, Md [1]: −2.00 | change of total angina pectoris score, Mean [1]: −3.28 | patients with change of dose of nitroglycerin score 0 (%) [1]: (65.55%) | patients with change of dose of nitroglycerin score 1 (%) [1]: (0.52%) | patients with change of dose of nitroglycerin score 2 (%) [1]: (3.97%) | patients with change of dose of nitroglycerin score 4 (%) [1]: (0.40%) | patients with change of dose of nitroglycerin score 6 (%) [1]: (0.35%) | patients with change of dose of nitroglycerin score −1 (%) [1]: (0.52%) | patients with change of dose of nitroglycerin score −2 (%) [1]: (21.77%) | patients with change of dose of nitroglycerin score −3 (%) [1]: (0.06%) | patients with change of dose of nitroglycerin score −4 (%) [1]: (4.95%) | patients with change of dose of nitroglycerin score −5 (%) [1]: (0.06%) | patients with change of dose of nitroglycerin score −6 (%) [1]: (1.84%) | distribution of total angina pectoris score: Medium, number of patients (FAS, Baseline): 608 | distribution of total angina pectoris score: Medium, percentage of patients (FAS, Baseline): (34.90%) | distribution of total angina pectoris score: Mild, number of patients (FAS, Baseline): 1086 | distribution of total angina pectoris score: Mild, percentage of patients (FAS, Baseline): (62.34%) | distribution of total angina pectoris score: Severe, number of patients (FAS, Baseline): 48 | distribution of total angina pectoris score: Severe, percentage of patients (FAS, Baseline): (2.76%) | total angina pectoris score, Md (FAS, Baseline): 8.00 | total angina pectoris score, Mean (FAS, Baseline): 7.12 | distribution of total angina pectoris score: Medium, number of patients (FAS, Follow-up): 199 | distribution of total angina pectoris score: Medium, percentage of patients (FAS, Follow-up): (13.79%) | distribution of total angina pectoris score: Mild, number of patients (FAS, Follow-up): 1243 | distribution of total angina pectoris score: Mild, percentage of patients (FAS, Follow-up): (86.14%) | distribution of total angina pectoris score: Severe, number of patients (FAS, Follow-up): 1 | distribution of total angina pectoris score: Severe, percentage of patients (FAS, Follow-up): (0.07%) | patients with dose of nitroglycerin score 0 (%) (FAS, Follow-up): (74.24%) | patients with dose of nitroglycerin score 1 (%) (FAS, Follow-up): (0.90%) | patients with dose of nitroglycerin score 2 (%) (FAS, Follow-up): (23.19%) | patients with dose of nitroglycerin score 4 (%) (FAS, Follow-up): (1.04%) | patients with dose of nitroglycerin score 6 (%) (FAS, Follow-up): (0.63%) | total angina pectoris score, Md (FAS, Follow-up): 0.00 | total angina pectoris score, Mean (FAS, Follow-up): 3.59 | change of total angina pectoris score, Md (FAS, Follow-up-baseline): −2.00 | change of total angina pectoris score, Mean (FAS, Follow-up-baseline): −3.49 | patients with change of dose of nitroglycerin score 0 (%) (FAS, Follow-up-baseline): (64.39%) | patients with change of dose of nitroglycerin score 1 (%) (FAS, Follow-up-baseline): (0.28%) | patients with change of dose of nitroglycerin score 2 (%) (FAS, Follow-up-baseline): (4.04%) | patients with change of dose of nitroglycerin score 4 (%) (FAS, Follow-up-baseline): (0.28%) | patients with change of dose of nitroglycerin score 6 (%) (FAS, Follow-up-baseline): (0.21%) | patients with change of dose of nitroglycerin score −1 (%) (FAS, Follow-up-baseline): (0.42%) | patients with change of dose of nitroglycerin score −2 (%) (FAS, Follow-up-baseline): (21.81%) | patients with change of dose of nitroglycerin score −3 (%) (FAS, Follow-up-baseline): (0.14%) | patients with change of dose of nitroglycerin score −4 (%) (FAS, Follow-up-baseline): (6.41%) | patients with change of dose of nitroglycerin score −5 (%) (FAS, Follow-up-baseline): (0.14%) | patients with change of dose of nitroglycerin score −6 (%) (FAS, Follow-up-baseline): (1.88%) | change of attack times score, patients (%) (change 0, FAS): (44.70%) | change of attack times score, patients (%) (change 0, PP): (44.46%) | change of attack times score, patients (%) (change 1, FAS): (1.94%) | change of attack times score, patients (%) (change 1, PP): (1.99%) | change of attack times score, patients (%) (change 2, FAS): (1.73%) | change of attack times score, patients (%) (change 2, PP): (1.70%) | change of attack times score, patients (%) (change 4, FAS): (0.14%) | change of attack times score, patients (%) (change 4, PP): (0.14%) | change of attack times score, patients (%) (change −1, FAS): (22.52%) | change of attack times score, patients (%) (change −1, PP): (22.44%) | change of attack times score, patients (%) (change −2, FAS): (22.73%) | change of attack times score, patients (%) (change −2, PP): (22.87%) | change of attack times score, patients (%) (change −3, FAS): (2.01%) | change of attack times score, patients (%) (change −3, PP): (2.06%) | change of attack times score, patients (%) (change −4, FAS): (3.60%) | change of attack times score, patients (%) (change −4, PP): (3.69%) | change of attack times score, patients (%) (change −5, FAS): (0.21%) | change of attack times score, patients (%) (change −5, PP): (0.21%) | change of attack times score, patients (%) (change −6, FAS): (0.42%) | change of attack times score, patients (%) (change −6, PP): (0.43%) | attack times score, patients (%) (Follow-up, score 0, FAS): (53.64%) | attack times score, patients (%) (Follow-up, score 0, PP): (53.48%) | attack times score, patients (%) (Follow-up, score 1, FAS): (22.80%) | attack times score, patients (%) (Follow-up, score 1, PP): (22.87%) | attack times score, patients (%) (Follow-up, score 2, FAS): (22.94%) | attack times score, patients (%) (Follow-up, score 2, PP): (23.01%) | attack times score, patients (%) (Follow-up, score 4, FAS): (0.62%) | attack times score, patients (%) (Follow-up, score 4, PP): (0.64%) | distribution of total angina pectoris score: Medium, number of patients (PP, 1 month after treatment): 434 | distribution of total angina pectoris score: Medium, percentage of patients (PP, 1 month after treatment): (29.21%) | distribution of total angina pectoris score: Mild, number of patients (PP, 1 month after treatment): 1030 | distribution of total angina pectoris score: Mild, percentage of patients (PP, 1 month after treatment): (69.31%) | distribution of total angina pectoris score: Severe, number of patients (PP, 1 month after treatment): 22 | distribution of total angina pectoris score: Severe, percentage of patients (PP, 1 month after treatment): (1.48%) | patients with dose of nitroglycerin score 0 (%) (PP, 1 month after treatment): (59.61%) | patients with dose of nitroglycerin score 1 (%) (PP, 1 month after treatment): (0.27%) | patients with dose of nitroglycerin score 2 (%) (PP, 1 month after treatment): (29.40%) | patients with dose of nitroglycerin score 4 (%) (PP, 1 month after treatment): (7.48%) | patients with dose of nitroglycerin score 6 (%) (PP, 1 month after treatment): (3.24%) | total angina pectoris score, Md (PP, 1 month after treatment): 6.00 | total angina pectoris score, Mean (PP, 1 month after treatment): 5.95 | change of total angina pectoris score, Md [2]: 0.00 | change of total angina pectoris score, Mean [2]: −1.22 | patients with change of dose of nitroglycerin score 0 (%) [2]: (80.36%) | patients with change of dose of nitroglycerin score 1 (%) [2]: (0.20%) | patients with change of dose of nitroglycerin score 2 (%) [2]: (3.78%) | patients with change of dose of nitroglycerin score 4 (%) [2]: (1.01%) | patients with change of dose of nitroglycerin score 6 (%) [2]: (0.27%) | patients with change of dose of nitroglycerin score −2 (%) [2]: (11.54%) | patients with change of dose of nitroglycerin score −4 (%) [2]: (2.29%) | patients with change of dose of nitroglycerin score −6 (%) [2]: (0.54%) | distribution of total angina pectoris score: Medium, number of patients (PP, 3 months after treatment): 363 | distribution of total angina pectoris score: Medium, percentage of patients (PP, 3 months after treatment): (24.64%) | distribution of total angina pectoris score: Mild, number of patients (PP, 3 months after treatment): 1098 | distribution of total angina pectoris score: Mild, percentage of patients (PP, 3 months after treatment): (74.54%) | distribution of total angina pectoris score: Severe, number of patients (PP, 3 months after treatment): 12 | distribution of total angina pectoris score: Severe, percentage of patients (PP, 3 months after treatment): (0.81%) | patients with dose of nitroglycerin score 0 (%) (PP, 3 months after treatment): (62.95%) | patients with dose of nitroglycerin score 1 (%) (PP, 3 months after treatment): (0.75%) | patients with dose of nitroglycerin score 2 (%) (PP, 3 months after treatment): (29.10%) | patients with dose of nitroglycerin score 4 (%) (PP, 3 months after treatment): (4.96%) | patients with dose of nitroglycerin score 6 (%) (PP, 3 months after treatment): (2.24%) | total angina pectoris score, Md (PP, 3 months after treatment): 6.00 | total angina pectoris score, Mean (PP, 3 months after treatment): 5.32 | change of total angina pectoris score, Md [3]: 0.00 | change of total angina pectoris score, Mean [3]: −1.85 | patients with change of dose of nitroglycerin score 0 (%) [3]: (5.05%) | patients with change of dose of nitroglycerin score 1 (%) [3]: (0.20%) | patients with change of dose of nitroglycerin score 2 (%) [3]: (3.75%) | patients with change of dose of nitroglycerin score 4 (%) [3]: (0.55%) | patients with change of dose of nitroglycerin score 6 (%) [3]: (0.34%) | patients with change of dose of nitroglycerin score −1 (%) [3]: (0.34%) | patients with change of dose of nitroglycerin score −2 (%) [3]: (15.81%) | patients with change of dose of nitroglycerin score −4 (%) [3]: (3.14%) | patients with change of dose of nitroglycerin score −5 (%) [3]: (0.14%)
